In ChEMBL document CHEMBL3882386, “Novel methods for identifying improved, non-sedating alpha-2 agonists” (2005):
Activity calls are given as the source filed them. The rule behind the calls is not given here.

Key:
Mus musculus [1] = experiment: Induction of sedation in C57BL/6 mouse at 100 ug/kg, ip relative to control; assay type: organism-based; settings: in vivo, 0.1 mg/kg
Mus musculus [2] = experiment: Reduction in […]-induced tactile hypersensitivity in C57BL/6 mouse at 10 ug/kg, ip relative to control; assay type: functional; parameters: scale not given: the % may be the effect or the level left
Mus musculus [3] = experiment: Induction of sedation in C57BL/6 mouse at 100 to 1000 ug/kg, po relative to control; assay type: organism-based; settings: in vivo
Mus musculus [4] = experiment: Reduction in […]-induced tactile hypersensitivity in C57BL/6 mouse at 1 ug/kg, po relative to control; assay type: functional; parameters: scale not given: the % may be the effect or the level left
Mus musculus [5] = experiment: Induction of sedation in C57BL/6 mouse at 100 to 1000 ug/kg, ip relative to control; assay type: organism-based; settings: in vivo
Mus musculus [6] = experiment: Induction of sedation in C57BL/6 mouse at 0.1 to 1000 ug/kg, po; settings: in vivo
Mus musculus [7] = experiment: Reduction in sulprostone-induced tactile hypersensitivity in C57BL/6 mouse at 0.1 to 1000 ug/kg, po; assay type: functional
Mus musculus [8] = experiment: Reduction in […]-induced tactile hypersensitivity in C57BL/6 mouse at 1 ug/kg, ip relative to control; assay type: functional; parameters: scale not given: the % may be the effect or the level left
[9] = biological target: T1, Alpha-2C adrenergic receptor (Mus musculus, UniProt Q01337); experiment: Binding affinity to mouse alpha-2C receptor expressed in COS7 cells; assay type: cell-based, COS-7
T1 sequence (Q01337 whole entry): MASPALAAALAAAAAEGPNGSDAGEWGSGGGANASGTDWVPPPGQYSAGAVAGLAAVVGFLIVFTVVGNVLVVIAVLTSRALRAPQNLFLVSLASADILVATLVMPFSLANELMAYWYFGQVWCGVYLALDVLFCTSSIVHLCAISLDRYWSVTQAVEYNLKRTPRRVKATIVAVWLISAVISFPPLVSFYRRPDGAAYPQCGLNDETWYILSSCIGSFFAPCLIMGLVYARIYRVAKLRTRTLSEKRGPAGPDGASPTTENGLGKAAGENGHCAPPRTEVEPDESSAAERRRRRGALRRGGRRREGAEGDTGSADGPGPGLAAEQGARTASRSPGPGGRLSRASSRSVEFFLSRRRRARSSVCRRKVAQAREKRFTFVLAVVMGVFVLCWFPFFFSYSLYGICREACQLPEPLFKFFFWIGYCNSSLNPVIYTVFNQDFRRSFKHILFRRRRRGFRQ

[10] = biological target: T2, Alpha-2A adrenergic receptor (Mus musculus, UniProt Q01338); experiment: Binding affinity to mouse alpha-2A receptor expressed in COS7 cells; assay type: cell-based, COS-7
T2 sequence (Q01338 whole entry): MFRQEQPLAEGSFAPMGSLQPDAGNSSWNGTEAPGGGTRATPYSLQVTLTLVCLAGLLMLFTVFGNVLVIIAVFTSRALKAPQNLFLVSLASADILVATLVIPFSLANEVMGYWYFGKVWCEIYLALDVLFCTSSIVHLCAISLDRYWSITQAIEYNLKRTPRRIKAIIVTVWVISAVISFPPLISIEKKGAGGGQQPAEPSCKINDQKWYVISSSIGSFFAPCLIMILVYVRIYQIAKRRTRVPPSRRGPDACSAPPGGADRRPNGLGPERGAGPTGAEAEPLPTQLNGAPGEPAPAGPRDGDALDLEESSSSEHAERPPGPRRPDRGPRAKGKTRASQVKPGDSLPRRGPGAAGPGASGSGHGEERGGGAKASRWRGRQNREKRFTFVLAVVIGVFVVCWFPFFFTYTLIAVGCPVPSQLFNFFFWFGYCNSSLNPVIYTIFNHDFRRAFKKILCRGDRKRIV

With `OCC1=CCCC(Cc2c[nH]cn2)C1` (stereo not given) the Activity (Mus musculus [1]) was less than 30% and the Activity (Mus musculus [2]) was greater than 50%.

`Cc1cccc([C@H](C)c2c[nH]c(=S)[nH]2)c1C` [REZATOMIDINE] gave an Activity (Mus musculus [3]) of less than 30%, an Activity (Mus musculus [4]) of 50% and an Activity (Mus musculus [5]) of less than 30%. The Activity (Mus musculus [6]) was “Non-Toxic”, the Activity (Mus musculus [7]) was “Active” and the Activity (Mus musculus [8]) was 50%.

For `NC[C@H](O)c1ccc(O)c(O)c1` [NOREPINEPHRINE], the Ki [9] was 0.65 µM and the Ki [10] was 5.8 µM.
